# Tested on: L. acidophilus NCFM
# Test: RNA-seq transcriptional analysis of L. acidophilus NCFM growing on plant glycosides
# Assay type: cell-based, Lactobacillus acidophilus
# [1] = LBA0329 Putative cell division protein, COG D
# [2] = LBA0466 Hypothetical protein, COG C
# [3] = LBA0500 MSM operon repressor, COG K
# [4] = LBA0545 Hypothetical protein, COG L
# [5] = LBA0547 Putative site-specific recombinase, COG L
# [6] = LBA0573 Putative transcriptional regulator, COG K
# [7] = LBA0607 Putative transcriptional regulator, COG K
# [8] = LBA0672 Putative phosphate starvation inducible protein stress related, COG J
# [9] = LBA0753 Multi-drug-type permease, COG GEPR
# [10] = LBA0886 Sugar kinase-putative transcriptional regulator, COG KG
# [11] = LBA0887 Hypothetical protein, COG C
# [12] = LBA0897 Putative Cro-like protein, COG K
# [13] = LBA0910 L-lactate dehydrogenase, COG C
# [14] = LBA1021 Putative transcriptional regulator, COG K
# [15] = LBA1220 Pyridine mercuric reductase, COG C
# [16] = LBA1392 Mucus binding protein precursor Mub, COG J
# [17] = LBA1411 Fumarate reductase flavoprotein subunit, COG CS
# [18] = LBA1436 Glycerol uptake facilitator protein, COG G
# [19] = LBA1457 Galactose-1-epimerase, COG G
# [20] = LBA1458 Galactose-1-phosphate uridylyltransferase, COG G
# [21] = LBA1462 Beta-galactosidase, COG G
# [22] = LBA1463 Lactose permease, COG G
# [23] = LBA1465 Transcription repressor of beta-galactosidasegene, COG K
# [24] = LBA1467 Beta-galactosidase large subunit (lactase), COG G
# [25] = LBA1468 Beta-galactosidase small subunit, COG G
# [26] = LBA1481 D-ribose-binding protein precursor, COG G
# [27] = LBA1482 Ribose ABC transporter, COG G
# [28] = LBA1483 Ribose ABC transporter ATP binding protein, COG G
# [29] = LBA1484 D-ribose pyranase, COG G
# [30] = LBA1494 Lincomycin-resistance protein, COG GEPR
# [31] = LBA1607 Phosphatidylserine decarboxylase precursor, COG I
# [32] = LBA1632 NAD-dependent aldehyde dehydrogenase, COG C
# [33] = LBA1653 Nicotinamide mononucleotide, COG H
# [34] = LBA1684 Putative PTS system IIA component, COG G
# [35] = LBA1689 Maltose-6′-phosphate Oucosidase, COG G
# [36] = LBA1700 Transcriptional regulator-type, COG K
# [37] = LBA1701 Melibiose operon regulatory protein, COG K
# [38] = LBA1705 PTS system IIBC component, COG G
# [39] = LBA1708 Transcriptional antiterminator, COG K
# [40] = LBA1710 Thermostable pullulanase, COG G
# [41] = LBA1812 Alpha-glucosidase II, COG G
# [42] = LBA1870 Maltose phosphorylase, COG G
# [43] = LBA1872 Oligo-1,6-glucosidase, COG G
structure (smiles),measurement,setting,value
OC[C@H]1O[C@@H](O[C@H]2[C@H](O)[C@@H](O)[C@@H](O)O[C@@H]2CO)[C@H](O)[C@@H](O)[C@H]1O [Lac],Log2 differential normalized TPM ratio compared to glucose,"LBA0016 Fructokinase, COG KG",1.2
same,Transcripts per million (rpm),"LBA0016 Fructokinase, COG KG",211.4 rpm
same,Log2 differential normalized TPM ratio compared to glucose,[1],0.4
same,Transcripts per million (rpm),[1],22.1 rpm
same,Log2 differential normalized TPM ratio compared to glucose,[2],1.5
same,Transcripts per million (rpm),[2],270 rpm
same,Log2 differential normalized TPM ratio compared to glucose,[3],1.6
same,Transcripts per million (rpm),[3],162 rpm
same,Log2 differential normalized TPM ratio compared to glucose,[4],2
same,Transcripts per million (rpm),[4],306 rpm
same,Log2 differential normalized TPM ratio compared to glucose,[5],1.7
same,Transcripts per million (rpm),[5],37.9 rpm
same,Log2 differential normalized TPM ratio compared to glucose,[6],0.1
same,Transcripts per million (rpm),[6],98.5 rpm
same,Log2 differential normalized TPM ratio compared to glucose,[7],0.5
same,Transcripts per million (rpm),[7],66.9 rpm
same,Log2 differential normalized TPM ratio compared to glucose,[8],0.8
same,Transcripts per million (rpm),[8],2957.4 rpm
same,Log2 differential normalized TPM ratio compared to glucose,[9],−0.8
same,Transcripts per million (rpm),[9],29.5 rpm
same,Log2 differential normalized TPM ratio compared to glucose,[10],0.2
same,Transcripts per million (rpm),[10],7.7 rpm
same,Log2 differential normalized TPM ratio compared to glucose,[11],1.2
same,Transcripts per million (rpm),[11],133.7 rpm
same,Log2 differential normalized TPM ratio compared to glucose,[12],−2.4
same,Transcripts per million (rpm),[12],0.5 rpm
same,Log2 differential normalized TPM ratio compared to glucose,[13],1
same,Transcripts per million (rpm),[13],257.2 rpm
same,Log2 differential normalized TPM ratio compared to glucose,[14],0.3
same,Transcripts per million (rpm),[14],186.9 rpm
same,Log2 differential normalized TPM ratio compared to glucose,[15],1
same,Transcripts per million (rpm),[15],394.7 rpm
same,Log2 differential normalized TPM ratio compared to glucose,[16],−0.2
same,Transcripts per million (rpm),[16],88.9 rpm
same,Log2 differential normalized TPM ratio compared to glucose,[17],1.1
same,Transcripts per million (rpm),[17],4.7 rpm
same,Log2 differential normalized TPM ratio compared to glucose,[18],3.8
same,Transcripts per million (rpm),[18],37 rpm
same,Log2 differential normalized TPM ratio compared to glucose,[19],5.6
same,Transcripts per million (rpm),[19],732.6 rpm
same,Log2 differential normalized TPM ratio compared to glucose,[20],5.7
same,Transcripts per million (rpm),[20],679.9 rpm
same,Log2 differential normalized TPM ratio compared to glucose,"LBA1459 Galactokinase, COG G",4.6
same,Transcripts per million (rpm),"LBA1459 Galactokinase, COG G",610.1 rpm
same,Log2 differential normalized TPM ratio compared to glucose,[21],6
same,Transcripts per million (rpm),[21],1123.2 rpm
same,Log2 differential normalized TPM ratio compared to glucose,[22],4.7
same,Transcripts per million (rpm),[22],1427.3 rpm
same,Log2 differential normalized TPM ratio compared to glucose,"LBA1464 Transposase, COG L",2.4
same,Transcripts per million (rpm),"LBA1464 Transposase, COG L",956 rpm
same,Log2 differential normalized TPM ratio compared to glucose,[23],3.1
same,Transcripts per million (rpm),[23],485.8 rpm
same,Log2 differential normalized TPM ratio compared to glucose,[24],8.8
same,Transcripts per million (rpm),[24],2333 rpm
same,Log2 differential normalized TPM ratio compared to glucose,[25],6.4
same,Transcripts per million (rpm),[25],1790.7 rpm
same,Log2 differential normalized TPM ratio compared to glucose,[26],0.7
same,Transcripts per million (rpm),[26],8.1 rpm
same,Log2 differential normalized TPM ratio compared to glucose,[27],1
same,Transcripts per million (rpm),[27],7.9 rpm
same,Log2 differential normalized TPM ratio compared to glucose,[28],1
same,Transcripts per million (rpm),[28],6.4 rpm
same,Log2 differential normalized TPM ratio compared to glucose,[29],0.6
same,Transcripts per million (rpm),[29],6.1 rpm
same,Log2 differential normalized TPM ratio compared to glucose,"LBA1485 Ribokinase, COG G",0.7
same,Transcripts per million (rpm),"LBA1485 Ribokinase, COG G",5.2 rpm
same,Log2 differential normalized TPM ratio compared to glucose,[30],0.1
same,Transcripts per million (rpm),[30],5.7 rpm
same,Log2 differential normalized TPM ratio compared to glucose,[31],1
same,Transcripts per million (rpm),[31],41.1 rpm
same,Log2 differential normalized TPM ratio compared to glucose,[32],1.8
same,Transcripts per million (rpm),[32],253.3 rpm
same,Log2 differential normalized TPM ratio compared to glucose,[33],0.6
same,Transcripts per million (rpm),[33],369.4 rpm
same,Log2 differential normalized TPM ratio compared to glucose,[34],1.9
same,Transcripts per million (rpm),[34],48 rpm
same,Log2 differential normalized TPM ratio compared to glucose,[35],1.4
same,Transcripts per million (rpm),[35],9.7 rpm
same,Log2 differential normalized TPM ratio compared to glucose,[36],0.4
same,Transcripts per million (rpm),[36],28.8 rpm
same,Log2 differential normalized TPM ratio compared to glucose,[37],0.8
same,Transcripts per million (rpm),[37],69.9 rpm
same,Log2 differential normalized TPM ratio compared to glucose,[38],0.8
same,Transcripts per million (rpm),[38],6.1 rpm
same,Log2 differential normalized TPM ratio compared to glucose,[39],1.4
same,Transcripts per million (rpm),[39],1.6 rpm
same,Log2 differential normalized TPM ratio compared to glucose,[40],0.4
same,Transcripts per million (rpm),[40],9.9 rpm
same,Log2 differential normalized TPM ratio compared to glucose,"LBA1723 Transposase, COG L",0.2
same,Transcripts per million (rpm),"LBA1723 Transposase, COG L",62 rpm
same,Log2 differential normalized TPM ratio compared to glucose,[41],2
same,Transcripts per million (rpm),[41],68.8 rpm
same,Log2 differential normalized TPM ratio compared to glucose,[42],−1.2
same,Transcripts per million (rpm),[42],46.3 rpm
same,Log2 differential normalized TPM ratio compared to glucose,"LBA1871 Neopullulanase, COG G",0.7
same,Transcripts per million (rpm),"LBA1871 Neopullulanase, COG G",4.5 rpm
same,Log2 differential normalized TPM ratio compared to glucose,[43],0.4
same,Transcripts per million (rpm),[43],4 rpm
same,Log2 differential normalized TPM ratio compared to glucose,"LBA1873 Acetate kinase, COG C",1.4
same,Transcripts per million (rpm),"LBA1873 Acetate kinase, COG C",9 rpm

# Reference: patent US20200222474A1, “COMPOSITIONS AND METHODS FOR INCREASING PHYTOCHEMICAL BIOAVAILABLITY AND BIOACTIVITY” (North Carolina State University, priority 2017, published 2020)
